Key:
BMI1 (EBV target gene) [1] = assay: EBV target gene downregulation (qPCR) in LCL070903 cells: BMI1; type: cell-based, human; settings: 48 hours; for potency in downregulating EBV pathway (BMI1) compared with 6-(4-tert-butylphenoxy)pyridin-3-amine (in words): 10 μM, qRT-PCR, FIG. 3; for inhibition at 10 µM: Homo sapiens, mRNA by qPCR, Table 6
Procedure: EBV positive human B LCL070903 cells were treated with 10 μM of the mentioned compounds for 48 hours. Following treatment, total RNA was extracted and mRNA expression analysed by qRT-PCR.
(§1) One million human EBV positive lymphoma cell lines HG3 and LCL070903 (Rosén et al., 2012) were cultured in RPMI1640 media supplemented with 10% FCS. For RNA expression analysis cells were treated with compounds at 10 μM concentration and for proliferation assay cells were treated at a concentration range of 0.01-100 μM. Following treatment cells were harvested and washed with 1× PBS. Total RNA was extracted as described below.
(§2) Total RNA was extracted from cells using TRIzol® extraction kit (Invitrogen). Briefly, 1×10^6 cells were washed with ice-cold 1× PBS and lysed in 1 ml of TRIzol® solution for 5 minutes at room temperature to dissociate nucleoprotein complexes. Lysed cells were then treated with 200 μl of chloroform and shaked vigorously for 15-30 seconds and incubated at room temperature for 2-3 minutes. The samples were centrifuged at 14000 rpm using Eppendorf table top centrifuge for 10 minutes at 4° C. Following centrifugation, upper aqueous phase was transferred to new eppendorf tubes. To precipitate total RNA 500 μl of […] was added to the separated aqueous phase and incubated at room temperature for 10 minutes. A RNA pellet was obtained by centrifuging the samples at 4° C. for 10 minutes. RNA pellet obtained was washed with 1 ml ice cold 75% ethanol and spun down at 14000 rpm at 4° C. RNA pellet was dried off of excess of ethanol and resuspended in 40 IA DPEC water.
(§3) Total RNA extracted from the cell was used to synthesize cDNA by reverse transcription reaction. Reverse transcription was performed according to one of the two following protocols.
(§4) In first protocol, SuperScript™ RT (Invitrogen) was used for reverse transcription reaction. RNA concentration was measured using NanoDrop®ND-1000 spectrophotometer (Witec AG) and 500 ng of total RNA was mixed with a 10 mM mix of dNTPs and 100 ng of random primers. The reaction mix was incubated at 65° C. for 5 minutes and quickly incubated on ice for 1 minute. Following incubation on ice, 5× first strand buffer and 0.1M DTT were added and mix was incubated for 2 minutes at 25° C. To start the reverse transcription reaction, 200U of SuperScrip™ II RT was added to the reaction mix and incubated at 42° C. for 50 minutes. The reaction was stopped by incubating the reaction mix at 75° C. for 15 minutes.
(§5) In second protocol, reverse transcription was performed using PrimeScript RT Master Mix (Takara). RNA concentration was measured using NanoDrop®ND-1000 spectrophotometer (Witec AG) and 1 μg of total RNA was mixed with 4 μL 5X PrimeScript RT Master Mix in a total reaction volume of 20 μL. The reaction mix was incubated at 37° C. for 15 minutes followed by heat inactivation at 85° C. for 5 seconds.
(§6) QRT-PCR was carried out using 7900 HT Fast Real-Time PCR system (Applied Biosystems) or QuantStudio 3 system (ThermoFisher). Briefly, 12.5 ng of template cDNA was used with a primer concentration of 0.5 μM each and lx SYBR Green dye in a final volume of 10 μL in a 96 well or 384 well plate format.
(§7) Upon infection of human cells, EBV is known to induce cancerous transformation of cells via upregulation of host as well as viral genes (e.g LMP1, EBNA2, BATF1, BMI1 and CD21). To determine the ability of compounds to downregulate EBV driven gene expression, HG-3 and LCL070903 cells were treated with selected compounds and percentage inhibition of EBV target genes was determined by quantitative PCR. As shown in Table 5 and Table 6, compounds down regulate EBV target genes such as BMI1 in HG-3 and LCL070903 cells, respectively (FIGS. 3 and 4).

BMI1 (EBV target gene) [2] = assay: EBV target gene downregulation (qPCR) in HG-3 cells: BMI1; type: cell-based, human; settings: 48 hours; for potency in downregulating EBV pathway (BMI1) compared with 6-(4-tert-butylphenoxy)pyridin-3-amine (in words): 10 μM, qRT-PCR, FIG. 4; for inhibition at 10 µM: Homo sapiens, mRNA by qPCR, Table 5
Procedure: EBV positive human B HG-3 cells were treated with 10 μM of the mentioned compounds for 48 hours. Following treatment, total RNA was extracted and mRNA expression analysed by qRT-PCR.
as §1, §2, §3, §4, §5, §6, §7

CD21 [3] = assay: EBV target gene downregulation (qPCR) in LCL070903 cells: CD21; type: cell-based; settings: Homo sapiens, mRNA by qPCR, Table 6
Procedure: as §1
as §2, with “A RNA pellet was obtained by centrifuging the samples at 4° C. for 10 minutes. RNA pellet obtained was washed with 1 ml ice cold 75% ethanol and spun down at 14000 rpm at 4° C. RNA pellet was dried off of excess of ethanol and resuspended in 40 IA DPEC water.” left out
(§8) In first protocol, SuperScript™ RT (Invitrogen) was used for reverse transcription reaction. RNA concentration was measured using NanoDrop®ND-1000 spectrophotometer (Witec AG) and 500 ng of total RNA was mixed with a 10 mM mix of dNTPs and 100 ng of random primers. […]
(§9) In second protocol, reverse transcription was performed using PrimeScript RT Master Mix (Takara). RNA concentration was measured using NanoDrop®ND-1000 spectrophotometer (Witec AG) and 1 μg of total RNA was mixed with 4 μL 5X PrimeScript RT Master Mix in a total reaction volume of 20 μL. […]
as §7, with “As shown in Table 5 and Table 6, compounds down regulate EBV target genes such as BMI1 in HG-3 and LCL070903 cells, respectively (FIGS. 3 and 4).” left out

LMP1 = assay: EBV target gene downregulation (qPCR) in LCL070903 cells: LMP1; type: cell-based; settings: Homo sapiens, mRNA by qPCR, Table 6
Procedure: as §1
(§10) Total RNA was extracted from cells using TRIzol® extraction kit (Invitrogen). Briefly, 1×10^6 cells were washed with ice-cold 1× PBS and lysed in 1 ml of TRIzol® solution for 5 minutes at room temperature to dissociate nucleoprotein complexes. Lysed cells were then treated with 200 μl of chloroform and shaked vigorously for 15-30 seconds and incubated at room temperature for 2-3 minutes. […]
as §8, §9

[4] = system: EBV positive human B HG-3 cells; assay: PrestoBlue proliferation assay in HG-3 cells; type: cell-based; settings: 72 hours; for anti-proliferative effect on HG-3 cells (in words): PrestoBlue, FIG. 2 and Table 4; for IC50: Homo sapiens, concentration range 0.03-100 μM, PrestoBlue assay, read-out: Anti-proliferative IC50 values (μM) in HG-3 cells
Procedure: (§11) One million human EBV positive lymphoma cell lines HG3 and LCL070903 (Rosén et al., 2012) were cultured in RPMI1640 media supplemented with 10% FCS. […] Following treatment cells were harvested and washed with 1× PBS. Total RNA was extracted as described below.
(§12) Alamarblue® and PrestoBlue proliferation assays were performed to determine the growth kinetics of EBV inhibitor treated cells. Alamar blue® and PrestoBlue consists of a cell permeable substrate resazurin. In metabolically active and proliferating cells, resazurin is converted to resorufin due to an intrinsic reducing power of live cells and produces a red fluorescence. Therefore production of resorufin serves as an indicator of the viability of the cell population.
(§13) Proliferation assays were performed by seeding 5000 cells/well in a 96 well plate. […] Each concentration was tested in 4 replicates. To determine the growth kinetics, 10 μl of Alamar blue® or PrestoBlue (Invitrogen) was added to each well and incubated for 4 hours. Readout was taken using Tecan F500 (Tecan) multiplate reader or Varioskan LUX (ThermoFisher) multiplate reader.
In brief, HG-3 cells were plated in a 96 well plate and treated with an increasing concentration of compounds.

EBNA2 [5] = assay: EBV target gene downregulation (qPCR) in HG-3 cells: EBNA2; type: cell-based; settings: Homo sapiens, mRNA by qPCR, Table 5
Procedure: as §1, §2, §3, §4, §5, §6
(§14) To determine the ability of compounds to downregulate EBV driven gene expression, HG-3 cells were treated with selected compounds and percentage inhibition of EBV target genes was determined by quantitative PCR. […] To further determine the anti-oncoviral specificity of compounds, these compounds were tested for their ability to downregulate a NOTCH target gene HES1 in a NOTCH1 positive (EBV negative) human leukemic cell line RPMI8402.
as §7

EBNA2 [6] = assay: EBV target gene downregulation (qPCR) in LCL070903 cells: EBNA2; type: cell-based; settings: Homo sapiens, mRNA by qPCR, Table 6
Procedure: as §1, §2, §3, §4, §5, §6, §7

[7] = system: EBV positive human lymphoma HG-3 cells; assay: Alamar blue proliferation assay in HG-3 cells; type: cell-based; settings: 72 hours
Procedure: as §11, §12, §13
In order to determine anti-cancer activity of compounds in oncoviral driven cells, an EBV infected human Chronic Lymphocytic Leukemia cell line HG-3 was used (Rosen et al., 2012). In brief, HG-3 cells were plated in a 96 well plate and treated with an increasing concentration of compounds.

BATF1 = assay: EBV target gene downregulation (qPCR) in HG-3 cells: BATF1; type: cell-based; settings: Homo sapiens, mRNA by qPCR, Table 2
Procedure: as §1, §10, §8, §9

NOTCH target gene HES1 = NOTCH target gene HES1 downregulation in RPMI 8402 cells; type: cell-based, human; set-up: Percentage inhibition of NOTCH target gene HES1: concentration or dose not given beside the values; settings: RPMI 8402 cells (NOTCH1 positive, EBV negative)
Procedure: as §2, §3, §6, §14

CD21 [8] = assay: EBV target gene downregulation (qPCR) in HG-3 cells: CD21; type: cell-based; settings: Homo sapiens, mRNA by qPCR, Table 2
Procedure: as §1, §10, §8, §9

IC50 ([7]; Homo sapiens, concentration range 0.01-10 μM, Alamar blue assay, read-out: Anti-proliferative IC50 values) [nM] | Structure (SMILES) | potency in downregulating EBV pathway (BMI1) compared with 6-(4-tert-butylphenoxy)pyridin-3-amine (in words) (BMI1 (EBV target gene) [1]) | inhibition at 10 µM (BMI1 (EBV target gene) [1]) [%] | potency in downregulating EBV pathway (BMI1) compared with 6-(4-tert-butylphenoxy)pyridin-3-amine (in words) (BMI1 (EBV target gene) [2]) | inhibition at 10 µM (BMI1 (EBV target gene) [2]) [%] | inhibition at 10 µM (CD21 [3]) [%] | inhibition at 10 µM (LMP1) [%] | anti-proliferative effect on HG-3 cells (in words) [4] | IC50 [4] [µM] | inhibition at 10 µM (EBNA2 [5]) [%] | inhibition at 10 µM (EBNA2 [6]) [%] | anti-proliferative effect on HG-3 cells (in words) ([7]; Alamar blue, FIG. 1 and Table 1) | inhibition at 10 µM (BATF1) [%] | Percentage inhibition of NOTCH target gene HES1 (NOTCH target gene HES1) [%] | downregulation of NOTCH target gene HES1 (in words) (NOTCH target gene HES1) | inhibition at 10 µM (CD21 [8]) [%]
– | Cc1ccccc1-c1ccc(Oc2ccc(NCc3cccnc3)cc2)cc1C [Example 28, 4-((2,2′-Dimethyl-[1,1′-biphenyl]-4-yl)oxy)-N-(pyridin-3-ylmethy)aniline] | enhanced potency | 61 | enhanced potency | 51 | 1 | 24 | demonstrate anti-proliferative effect | 1.5 | 36 | 43 | – | – | – | – | –
2200 | CC(C)(C)c1ccc(Oc2ccc(NCc3cccnc3)cn2)cc1 [Example 2, 6-(4-(tert-Butyl)phenoxy)-N-(pyridin-3-ylmethyl)pyridin-3-amine] | – | – | – | – | – | – | – | – | – | – | demonstrate anti-proliferative effect | > 90 | 0 | do not modulate expression of this gene | > 90
– | c1ccc(-c2ccc(Oc3ccc(NCc4cccnc4)cn3)cn2)cc1 [Example 21, 6-((6-Phenylpyridin-3-yl)oxy)-N-(pyridin-3-ylmethyl)pyridin-3-amine] | enhanced potency | 51 | enhanced potency | 47 | 9 | 12 | demonstrate anti-proliferative effect | 3.8 | – | 50 | – | – | – | – | –

Source: patent US20220185793A1, “COMPOUNDS FOR THE TREATMENT OF ONCOVIRUS INDUCED CANCER AND METHODS OF USE THEREOF” (Cellestia Biotech AG, priority 2019, published 2022)
